Laboratory results as given in article PMC3898987 (Bioorganic & Medicinal Chemistry, 2013).
Positions count from the first letter of the chain named.

Key:
[1] = molecular target: T1, 5-HT3AB receptor, 5-HT3B subunit H73A (Homo sapiens, UniProt O95264+P46098, H66A); test: FlexStation membrane potential dye functional assay, HEK293 cells; settings: 5-HT concentration-response, 5-HT3AB with 5-HT3B H73A
T1 sequence (P46098 24-478): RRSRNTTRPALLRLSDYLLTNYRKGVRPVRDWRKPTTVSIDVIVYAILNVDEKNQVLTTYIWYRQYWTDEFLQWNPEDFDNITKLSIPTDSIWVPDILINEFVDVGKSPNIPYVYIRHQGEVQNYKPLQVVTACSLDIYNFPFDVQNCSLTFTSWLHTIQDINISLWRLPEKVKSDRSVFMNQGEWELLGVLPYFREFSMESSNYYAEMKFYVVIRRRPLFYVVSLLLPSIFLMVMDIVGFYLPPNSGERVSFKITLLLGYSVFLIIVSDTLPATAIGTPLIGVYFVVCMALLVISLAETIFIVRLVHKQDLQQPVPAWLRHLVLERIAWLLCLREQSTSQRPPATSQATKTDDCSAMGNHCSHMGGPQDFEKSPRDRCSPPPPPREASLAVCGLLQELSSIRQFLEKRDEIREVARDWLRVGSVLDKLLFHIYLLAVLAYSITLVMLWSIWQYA
T1 sequence (O95264 22-441 H66A): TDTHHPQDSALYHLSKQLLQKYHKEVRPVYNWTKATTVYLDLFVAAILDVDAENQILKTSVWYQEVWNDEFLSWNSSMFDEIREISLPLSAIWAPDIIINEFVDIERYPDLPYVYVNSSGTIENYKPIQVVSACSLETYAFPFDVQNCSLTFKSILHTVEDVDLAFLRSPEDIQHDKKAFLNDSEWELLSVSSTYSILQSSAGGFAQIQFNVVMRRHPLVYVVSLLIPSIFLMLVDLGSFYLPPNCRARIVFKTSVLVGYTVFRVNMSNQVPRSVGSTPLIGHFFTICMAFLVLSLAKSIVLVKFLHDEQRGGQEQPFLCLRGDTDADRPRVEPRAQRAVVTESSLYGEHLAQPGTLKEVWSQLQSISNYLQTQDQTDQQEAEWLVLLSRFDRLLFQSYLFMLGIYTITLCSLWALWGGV
Protocol: Human embryonic kidney (HEK) 293 cells were cultured on 90 mm tissue culture plates at 37 °C and 7% CO2 in a humidified atmosphere. They were grown in DMEM:F12 (Dulbecco’s Modified Eagle’s Medium/Nutrient Mix F12 (1:1)) with GlutaMAX I™ containing 10% fetal calf serum and passaged when confluent. […] For FlexStation assays, transfected cells were plated on 96-well plates and incubated 1–2 days before assay.
(§1) Fluorometric studies were undertaken using a FlexStation® (Molecular Devices, Sunnyvale, CA, USA) as previously described.[11]
(§2) Fluorescence was measured every 2 s for 200 s. […] Concentration–response and inhibition curves were obtained for each mutant, and the fluorescence values were normalized to the maximal response.

[2] = molecular target: T2, 5-HT3AB receptor, 5-HT3B subunit I183A (Homo sapiens, UniProt O95264+P46098, I176A); test: as above; settings: 5-HT concentration-response, 5-HT3AB with 5-HT3B I183A
T2 sequence (P46098 24-478): T1 sequence (P46098 24-478)
T2 sequence (O95264 22-441 I176A): T1 sequence (O95264 22-441 H66A) with A45H, I155A
Protocol: (§3) For FlexStation assays, transfected cells were plated on 96-well plates and incubated 1–2 days before assay.
as §1, §2

5-HT3A receptor Y73A = molecular target: T3, 5-HT3A receptor Y73A (Homo sapiens, UniProt P46098, Y68A); test: radioligand saturation binding, transfected HEK293 membranes; settings: [3H]-palonosetron saturation, 5-HT3A Y73A, 4 °C, 24 h
T3 sequence (P46098 24-478 Y68A): T1 sequence (P46098 24-478) with Y45A
Protocol: (§4) Human embryonic kidney (HEK) 293 cells were cultured on 90 mm tissue culture plates at 37 °C and 7% CO2 in a humidified atmosphere. They were grown in DMEM:F12 (Dulbecco’s Modified Eagle’s Medium/Nutrient Mix F12 (1:1)) with GlutaMAX I™ containing 10% fetal calf serum and passaged when confluent. For radioligand binding studies, cells in 90 mm dishes were transfected at 60–70% confluency using polyethyleneimine and incubated for 3–4 days before use. For FlexStation assays, transfected cells were plated on 96-well plates and incubated 1–2 days before assay. […]
(§5) Eight-point binding assays were performed to produce saturation binding curves. […] Radioactive counts were measured using a Beckman LS6000SC liquid scintillation counter (Fullerton, California, USA).
(§6) Data were analyzed by iterative curve fitting using GraphPad Prism v5 (San Diego, CA) according to the following equation: B=Bmax[L]^n/kdn+[L]^n where B is the amount of bound radioligand, Bmax is the maximum specific binding at equilibrium, [L] is the concentration of radioligand, Kd is the equilibrium dissociation constant of the radioligand, and n is the Hill coefficient.

WT 5-HT3AB receptor = molecular target: T4, WT 5-HT3AB receptor (Homo sapiens, UniProt O95264+P46098); test: as above; settings: [3H]-palonosetron saturation, 4 °C, 24 h
T4 sequence (P46098 24-478): T1 sequence (P46098 24-478)
T4 sequence (O95264 22-441): T1 sequence (O95264 22-441 H66A) with A45H
Protocol: as §4, §5, §6

[3] = molecular target: T5, 5-HT3AB receptor, 5-HT3B subunit Y143A (Homo sapiens, UniProt O95264+P46098, Y136A); test: cell-based
T5 sequence (P46098 24-478): T1 sequence (P46098 24-478)
T5 sequence (O95264 22-441 Y136A): T1 sequence (O95264 22-441 H66A) with A45H, Y115A
Protocol: as §3, §1, §2

NCCc1c[nH]c2ccc(O)cc12 [5-HT, serotonin]
Hill Coefficient [1]: 1.6 ± 0.2
Hill Coefficient [2]: 1.2 ± 0.2

O=C1c2cccc3c2[C@H](CCC3)CN1[C@@H]1CN2CCC1CC2 [Palonosetron]
Kd (5-HT3A receptor Y73A): 0.87 ± 0.04 nM
Kd (WT 5-HT3AB receptor): 0.18 ± 0.02 nM
IC50 [3]: 0.38 ± 0.05 nM
